From patent US12480954B2, “Method for assisting evaluation of condition of kidneys, system for evaluating condition of kidneys, and program for evaluating condition of kidneys” (Kagami Inc., priority 2019, dated 2025)

Tests used:
[1] = set-up: species or system human; details: in vivo
Text: Blood D-serine levels and D-asparagine levels correlate more strongly with glomerular filtration rate than the conventional marker of creatinine. […] In healthy persons without presence of disease, blood D-serine level is kept to within a very narrow range of about 1 to 2% of total serine, whereas its presence in urine reaches 30 to 60%. […] Moreover, in healthy persons without presence of disease, blood D-asparagine level is kept to within a very narrow range of about 0.1 to 0.6% of total asparagine, whereas its presence in urine reaches 20 to 50%.

[2] = human, in vivo
Text: The test protocol was approved by the ethics committee of the national research and development agency: National Institutes of Biomedical Innovation, Health and Nutrition, and written informed consent was obtained from all of the test subjects.
[formula] • [UD-Ser represents urine D-serine level, PD-Ser represents blood D-serine level, UCre represents urine creatinine level and PCre represents blood creatinine level.]
A retrospective study was used for primary aldosteronism (PA), myeloma kidney […], diabetic nephropathy (DM) and IgA nephropathy (IGAN), from a cohort of kidney disease patients admitted to the Department of Nephrology, Osaka University Hospital for diagnosis and/or treatment from 2016 to 2017. Since IgA nephropathy test subjects had blood pressure above the reference range, they were given an angiotensin II receptor antagonist (ARB) as an antihypertensive drug. Separately, 15 healthy volunteers were recruited as non-kidney disease subjects by the National Institutes of Biomedical Innovation, Health and Nutrition. The test protocol was approved by the ethics committee of each facility, and written informed consent was obtained from all of the patients.
Sample preparation from human blood plasma and urine was carried out as follows: First a 20-fold volume of methanol was added to and completely mixed with the blood plasma. After centrifugation, 10 μL of supernatant obtained from the methanol homogenate was transferred to a brown tube and dried under reduced pressure. To the residue there were added 20 μL of 200 mM sodium borate buffer (pH 8.0) and 5 μL of fluorescent labeling reagent (40 mM 4-fluoro-7-nitro-2,1,3-benzooxadiazole (NBD-F) in anhydrous MeCN), and the mixture was then heated at 60° C. for 2 minutes. The reaction was suspended by addition of 75 μL of aqueous 0.1% TFA (v/v), and 2 μL of the reaction mixture was supplied to two-dimensional HPLC.
The amino acid optical isomers were quantified using the following two-dimensional HPLC system. NBD derivatives of the amino acids were separated and eluted using a reversed-phase column (KSAA RP, 1.0 mm i.d.×400 mm; Shiseido Corp.), in the mobile phase (5 to 35% MeCN, 0 to 20% THF, 0.05% TFA). The column temperature was 45° C. and the mobile phase flow rate was 25 μL/min. The separated amino acid fraction was separated off using a multi loop valve, and optically resolved in a continuous manner with a chiral column (KSAACSP-001S, 1.5 mm i.d.×250 mm; Shiseido Corp.). The mobile phase used was a MeOH/MeCN mixed solution containing citric acid (0 to 10 mM) or formic acid (0 to 4%), according to the amino acid retention. NBD-amino acids were detected by fluorescence detection at 530 nm using excitation light of 470 nm. The NBD-amino acid retention time was identified from standard amino acid optical isomers and quantified by a calibration curve.
The blood urine D-serine level and blood urine D-asparagine level and creatinine level were calculated by substitution into the following formulas.
[formula] • [where • UD-Ser represents the level of D-serine in the urine, • PD-Ser represents the level of D-serine in the blood, • UCre represents the level of creatinine in the urine, and • PCre represents the level of creatinine in the blood]
[formula] • [where • UD-Asn represents the level of D-asparagine in the urine, • PD-Asn represents the level of D-asparagine in the blood, • UCre represents the level of creatinine in the urine, and • PCre represents the level of creatinine in the blood] Evaluation and Assessment of Pathology

[3] = D-serine excretion rate monitored before and after therapeutic intervention in a systemic lupus erythematosus patient; type: in vivo, human; details: SLE patient
Experimental: After obtaining written informed consent from a person admitted to Osaka University Hospital with systemic lupus erythematosus, with ethical approval from the same University, their blood and urine were periodically sampled. The values rapidly worsened, with serum creatinine increasing from a level of 0.57 mg/dL 90 days before admission to 11.68 mg/dL and urine protein concentration increasing from 0.5 g/g Cre to 4.0 g/g Cre, while blood pressure was 122/65 mmHg, HR was 64 bpm, percutaneous arterial oxygen saturation was 100% (indoor air) and body temperature was 36.5° C. Mouth ulcers, alopecia and retinal hemorrhage were also noted, but no abnormal lung sounds, heart sounds or lower extremity edema was observed. Rapidly progressive glomerulonephritis was suspected in clinical testing, with blood hemoglobin of 4.6 g/dL, normal level complement of C3: 88 mg/dL and C4: 21 mg/dL, positive anti-dsDNA antibody of 13.0 IU/mL1, and P-ANCA of 182.0 U/mL, and therefore plasma exchange (PE) sessions were continued, and kidney biopsy was performed. Crescent-shaped cells were found in 79% of the glomeruli, fibrous crescent-shaped cells were found in 13%, and the glomerular capillaries were thickened with foam and spikes, although no glomerulosclerosis was observed. […] Tubular atrophy was localized and moderate. In immunofluorescent staining, the granular glomerular capillary walls were positive overall for IgG, IgA, IgM, C3, C4 and C1q. Diagnosis was latent ANCA-related crescent-shaped glomerular nephritis, with lupus nephritis class V. Treatment was by prednisolone pulse therapy (3 days, 1 g), followed by oral prednisolone (40 mg/day), intermittent pulse intravenous cyclophosphamide therapy (500 mg/m^2) and mycophenolate mofetil (MMF, 500 mg/day). Eight series of plasma exchange was also carried out. In response to this treatment, the serum creatinine level fell to 0.72 mg/dL, but the urine protein level persisted. […] The harvested blood and urine samples were prepared in the same manner as Example 1, and the D-serine was quantified while also calculating the D-serine excretion rate.

| SMILES | reabsorbed in the renal tubules [1] | logarithm of reference values of excretion rate [2] | mean logarithmic value of excretion rate [2] | reference values of excretion rate, mean with standard deviation of ±1.96 [2] | excreted [1] | other results |
| --- | --- | --- | --- | --- | --- | --- |
| N[C@@H](CO)C(=O)O [L-serine] | about 99% | – | – | – | – | – |
| NC(=O)C[C@@H](N)C(=O)O [D-asparagine] | – | 3.95-4.37 | 4.16 | 51.65-78.74% | 50-80% | – |
| N[C@H](CO)C(=O)O [D-serine] | – | 3.75-4.50 | 4.12 | 42.46-89.66% | 50-80% | D-serine excretion rate ([3]; after 48 hours (so in the source)): 41.7%; D-serine excretion rate ([3]; after 8 days): 0; D-serine excretion rate ([3]; after 12 days): 0; D-serine excretion rate ([3]; after 16 days): 0; D-serine excretion rate ([3]; after 22 days): 0; D-serine excretion rate ([3]; after 29 days): 58.9%; D-serine excretion rate ([3]; after 34 days): 87.6%; D-serine excretion rate ([3]; immediately after start of treatment): 0 |
| NC(=O)C[C@H](N)C(=O)O [L-asparagine] | about 99% | – | – | – | – | – |
